Measurements as given in the NIST ThermoML archive (doi:10.1016/j.tca.2008.05.004).

Details: 101.33 kPa, Crystal; for molar entropy: Small (less than 1 g) adiabatic calorimetry

O=P([O-])([O-])[O-].[La+3] [lanthanum orthophosphate]
Details | molar entropy [J/K/mol]
2 K | 0.00041
4 K | 0.00372
6 K | 0.01262
8 K | 0.0291
10 K | 0.0561
12 K | 0.09746
14 K | 0.1576
16 K | 0.2412
18 K | 0.3527
20 K | 0.4961
25 K | 1.015
30 K | 1.776
35 K | 2.783
40 K | 4.024
45 K | 5.479
50 K | 7.119
60 K | 10.84
70 K | 14.97
80 K | 19.34
90 K | 23.86
100 K | 28.43
110 K | 33.01
120 K | 37.56
130 K | 42.08
140 K | 46.55
150 K | 50.59
160 K | 55.29
170 K | 59.57
180 K | 63.77
190 K | 67.91
200 K | 71.98
210 K | 75.99
220 K | 79.93
230 K | 83.81
240 K | 87.62
250 K | 91.37
260 K | 95.06
270 K | 98.69
280 K | 102.3
290 K | 105.8
300 K | 109.2
320 K | 116
340 K | 122.5
360 K | 128.8
373 K | 132.9
400 K | 141
450 K | 155.1
500 K | 168.2
550 K | 180.3
600 K | 191.7
650 K | 202.4
700 K | 212.6
750 K | 222.1
800 K | 231.3
850 K | 240
900 K | 248.3
950 K | 256.3
1000 K | 263.9
1050 K | 271.3
1100 K | 278.5
1150 K | 285.4
1200 K | 292.1
1250 K | 298.6
1300 K | 305
1350 K | 311.1
1400 K | 317.1
1450 K | 323
1500 K | 328.7
1550 K | 334.3
1600 K | 339.8

Details | mass density [kg/m3]
293 K, X-ray diffraction | 5076
